From PubChem BioAssay AID977605 (Broad Institute, 2014)
Activity calls are given as the source filed them.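 The calls were made as follows: active = fitted curve reaches 40% activation below the top valid tested dose, in every test run; inconclusive = test runs disagree on the call; inactive = the rest, including effects opposite to the expected direction.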

Experiment: E-selectin inducers in HUVECs, dose response, imaging, HUVEC, cherry-picked samples (AID 977605);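 also: signal is the share of imaged cells scored positive for E-selectin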
Settings: HUVEC E-selectin immunostaining, at 19.5 µM (top of the series), percent of TNF-alpha response over vehicle

SMILES	activation
C[C@H]1CN([C@@H](C)CO)C(=O)c2cc(NC(=O)C3CCCCC3)ccc2O[C@H]1CN(C)Cc1ccc(C(=O)Nc2ccccc2N)cc1	4.92% (inactive)
Cc1ccsc1CN(C)Cc1nc(C2CC2)no1	1.75% (inactive)
Fc1ccc(NC(=S)N2CCN(c3cccc(C(F)(F)F)c3)CC2)cc1	-0.235% (inactive)
COc1ccc(S(=O)(=O)N(C)C[C@H]2Oc3ccc(NC(=O)CCCN(C)C)cc3C(=O)N([C@@H](C)CO)C[C@H]2C)cc1	0.162% (inactive)
COc1ccc(S(=O)(=O)Nc2ccc3c(c2)CC(=O)N([C@H](C)CO)C[C@H](C)[C@H](CN(C)C(=O)NC2CCCCC2)O3)cc1	-0.057% (inactive)
Cc1noc(C)c1NC(=O)Nc1ccc2c(c1)CC(=O)N([C@@H](C)CO)C[C@H](C)[C@H](CN(C)Cc1ccc(Oc3ccccc3)cc1)O2	0.075% (inactive)
Cc1ccccc1CNc1ncnc2cc(Cl)ccc12	0.221% (inactive)
Cc1cc(C)cc(NC(=O)Cc2ccc(NC3=NC4CS(=O)(=O)CC4S3)cc2)c1 (stereo unspecified)	0.105% (inactive)
COc1ccc(S(=O)(=O)N(C)C[C@@H]2Oc3ccc(NC(=O)c4ccncc4)cc3C(=O)N([C@@H](C)CO)C[C@@H]2C)cc1	-0.183% (inactive)
Cc1noc(C)c1NC(=O)N(C)C[C@H]1Oc2ccc(NC(=O)c3ccncc3)cc2C(=O)N([C@H](C)CO)C[C@@H]1C	-0.129% (inactive)
CC(C)(C)c1ccc(C(=O)Nc2ccc3c(c2)C(=O)NC3=O)cc1	0.042% (inactive)
Cc1cccc(NS(=O)(=O)c2csc(C(N)=O)c2)c1C	0.111% (inactive)
C[C@@H]1CN([C@@H](C)CO)C(=O)Cc2cc(NC(=O)Nc3ccc4c(c3)OCO4)ccc2O[C@H]1CN(C)C	-0.168% (inactive)
Cc1noc(C)c1NC(=O)N(C)C[C@H]1Oc2ccc(NS(=O)(=O)c3cccs3)cc2C(=O)N([C@H](C)CO)C[C@H]1C	-0.05% (inactive)
COc1ccc(S(=O)(=O)N(C)C[C@H]2Oc3ccc(NC(=O)c4ccncc4)cc3C(=O)N([C@@H](C)CO)C[C@@H]2C)cc1	-0.047% (inactive)
C[C@H](CO)N1C[C@H](C)[C@@H](CN(C)Cc2ccc(C(F)(F)F)cc2)Oc2ccc(N(C)C)cc2CC1=O	0.906% (inactive)
Cc1ccc(C(=O)NCC(=O)Nc2ccncc2)cc1C	-0.08% (inactive)
C[C@H](CO)N1C[C@H](C)[C@@H](CN(C)S(=O)(=O)c2cn(C)cn2)Oc2ccc(NS(=O)(=O)c3ccc(Cl)cc3)cc2C1=O	-0.286% (inactive)
C[C@H]1CN([C@@H](C)CO)C(=O)c2cc(NC(=O)CCN3CCOCC3)ccc2O[C@H]1CN(C)S(C)(=O)=O	-0.165% (inactive)
CCc1ccc(C(C(=O)NC2CCCCC2)N(C(=O)c2csnn2)C2CC2)cc1 (stereo unspecified)	-0.021% (inactive)
C[C@@H]1CN([C@@H](C)CO)C(=O)Cc2cc(NC(=O)Nc3ccc(F)cc3)ccc2O[C@H]1CN(C)S(=O)(=O)c1ccccc1	-0.074% (inactive)
C[C@H]1CN([C@@H](C)CO)C(=O)Cc2cc(NC(=O)C3CC3)ccc2O[C@@H]1CN(C)S(=O)(=O)c1cccs1	-0.038% (inactive)
C[C@@H]1CN([C@H](C)CO)C(=O)c2cccc(NC(=O)c3ccncc3)c2O[C@H]1CN(C)S(=O)(=O)c1ccccc1	2.7% (inactive)

SMILES	activation
CC(C)(C)c1cc(CCC(=O)NCc2ccccn2)cc(C(C)(C)C)c1O	-0.086% (inactive)
C[C@H](CO)N1C[C@H](C)[C@H](CN(C)Cc2ccc(Cl)c(Cl)c2)Oc2c(NC(=O)CCCCCC(=O)Nc3ccccc3N)cccc2C1=O	0.173% (inactive)
C[C@@H]1CN([C@H](C)CO)C(=O)c2cccc(NC(=O)Nc3ccc(F)cc3)c2O[C@H]1CN(C)Cc1ccncc1	-0.015% (inactive)
CCn1nc(CC(=O)O)c2ccccc2c1=O	5.69% (inactive)
C[C@H]1CN([C@@H](C)CO)C(=O)c2cc(NC(=O)Nc3ccc4c(c3)OCO4)ccc2O[C@@H]1CN(C)S(=O)(=O)c1ccc(F)cc1	-0.105% (inactive)
C[C@@H]1CN([C@@H](C)CO)C(=O)c2cc(NC(=O)Nc3ccc(C(F)(F)F)cc3)ccc2O[C@H]1CN(C)S(=O)(=O)c1ccccc1	-0.17% (inactive)
CN(Cc1ccsc1)C(=O)CCc1nnc(CCCc2ccccc2)o1	1.14% (inactive)
CC(C)CC#Cc1ccc2c(c1)O[C@H](CN(C)Cc1ccncc1)[C@H](C)CN([C@@H](C)CO)S2(=O)=O	-0.038% (inactive)
CCOc1ccc2ncc(S(=O)(=O)c3ccc(C)cc3)c(N3CCC4(CC3)OCCO4)c2c1	-0.045% (inactive)
O=S(=O)(c1ccc(F)cc1)N1CCCN(c2nccc(C(F)(F)F)n2)CC1	-0.174% (inactive)
CCOc1ccc(NC(=O)CNC(=O)c2ccc(OC)cc2)cc1	0.033% (inactive)
C[C@@H]1CN([C@@H](C)CO)C(=O)c2cc(NC(=O)Nc3ccccc3)ccc2O[C@@H]1CN(C)C(=O)Nc1ccc(C(F)(F)F)cc1	0.807% (inactive)
COc1ccc(NC(=O)Nc2ccc3c(c2)C(=O)N([C@H](C)CO)C[C@H](C)[C@@H](CN(C)Cc2ccncc2)O3)cc1	4.31% (inactive)
COc1ccc(NC(=O)Nc2cccc3c2O[C@@H](CN(C)C(=O)NC2CCCCC2)[C@@H](C)CN([C@H](C)CO)C3=O)cc1	0.334% (inactive)
COC(=O)c1ccc(CNC(=O)c2ccc(OC)c(S(=O)(=O)NC3CCCC3)c2)cc1	-0.105% (inactive)
C/C=C/c1ccc2c(c1)O[C@H](CN(C)C(=O)CC)[C@@H](C)CN([C@H](C)CO)S2(=O)=O	25.5% (inactive)
C[C@H](CO)N1C[C@H](C)[C@@H](CN(C)C(=O)NC2CCCCC2)Oc2c(NC(=O)Nc3ccc(F)cc3)cccc2C1=O	0.219% (inactive)
CCOC(=O)c1ccc(N(C(=O)c2ccco2)C(C(=O)NC2CCCCC2)c2ccncc2)cc1 (stereo unspecified)	-0.129% (inactive)
Cc1cc(C)cc(NC(=O)Nc2ccc(-n3ccc(C(F)(F)F)n3)cc2)c1	0.075% (inactive)
C[C@@H]1CN([C@@H](C)CO)C(=O)Cc2cc(NS(C)(=O)=O)ccc2O[C@@H]1CN(C)S(=O)(=O)c1cn(C)cn1	-0.013% (inactive)
COc1ccc(N2C(=O)c3ccccc3C(C)(C)C2=O)cc1	-0.152% (inactive)
C[C@@H]1CN([C@@H](C)CO)C(=O)Cc2cc(NS(=O)(=O)c3cccs3)ccc2O[C@H]1CN(C)C(=O)Nc1ccc(F)cc1	-0.169% (inactive)
O=C(CN(C(=O)c1csnn1)c1ccc2c(c1)OCCO2)NCc1ccc(F)cc1	-0.09% (inactive)

Same assay, conditions: HUVEC E-selectin immunostaining, at 21 µM (top of the series), percent of TNF-alpha response over vehicle

SMILES	activation
CC(C)NC(=O)Nc1cccc2c1O[C@H](CN(C)Cc1ccncc1)[C@@H](C)CN([C@H](C)CO)C2=O	0.115% (inactive)
C[C@@H]1CN([C@@H](C)CO)C(=O)c2cc(NC(=O)CCCCCC(=O)Nc3ccccc3N)ccc2O[C@H]1CN(C)C(=O)Nc1ccc2c(c1)OCO2	0.05% (inactive)
COc1ccc(NC(=O)N(C)C[C@H]2Oc3ccc(NC(=O)Cc4cn(C)c5ccccc45)cc3C(=O)N([C@H](C)CO)C[C@@H]2C)cc1	7.04% (inactive)
CC(C)NC(=O)N(C)C[C@H]1Oc2ccc(NC(=O)CCC(F)(F)F)cc2CC(=O)N([C@@H](C)CO)C[C@@H]1C	-0.117% (inactive)
C[C@@H]1CN([C@H](C)CO)C(=O)c2cccc(NS(C)(=O)=O)c2O[C@@H]1CN(C)Cc1ccc(Oc2ccccc2)cc1	-0.185% (inactive)
